From ChEMBL document CHEMBL1146430, “Alternatamides A-D: new bromotryptamine peptide antibiotics from the Atlantic marine bryozoan Amathia alternata” (1997)

Key:
Assay type in all cases: functional
Staphylococcus aureus = experiment: Antibacterial activity against Staphylococcus aureus
[1] = tested on: Staphylococcus epidermidis; experiment: Antibacterial activity against Staphylococcus epidermidis
[2] = tested on: Staphylococcus haemolyticus; experiment: Antibacterial activity against Staphylococcus haemolyticus
Bacillus subtilis = experiment: Antibacterial activity against Bacillus subtilis
Enterococcus faecalis = experiment: Antibacterial activity against Enterococcus faecalis
Enterococcus faecium = experiment: Antibacterial activity against Enterococcus faecium
Streptococcus pyogenes = experiment: Antibacterial activity against Streptococcus pyogenes

Measured: MIC

CN[C@@H](CC(C)C)C(=O)NCCc1c(Br)n(C)c2cc(Br)c(Br)cc12 [ALTEMATAMIDE A]
4 µg/mL: Staphylococcus aureus | [1] | [2] | Bacillus subtilis | Enterococcus faecalis | Enterococcus faecium | Streptococcus pyogenes

CN[C@@H](CC(C)C)C(=O)NCCc1c(Br)[nH]c2cc(Br)c(Br)cc12 [ALTEMATAMIDE B]
4 µg/mL: Staphylococcus aureus | [1] | [2] | Bacillus subtilis | Enterococcus faecalis | Enterococcus faecium | Streptococcus pyogenes

CN[C@@H](CC(C)C)C(=O)NCCc1c(Br)[nH]c2ccc(Br)cc12 [ALTEMATAMIDE C]
4 µg/mL: Staphylococcus aureus | [1] | [2] | Bacillus subtilis | Enterococcus faecalis | Enterococcus faecium | Streptococcus pyogenes
